# Experimental data: patent US6914045B2, “Glycopeptide antibiotics” (Wyeth Holdings Corporation, priority 2001, dated 2005)
# Legend:
# Assay in all cases: in vitro antibacterial evaluation, MIC by broth dilution
# Format in all cases: cell-based
# Staphylococcus sp. = details: broth dilution, 18 hours at 35° C.; for MIC Staphylococcus aureus (GC 1131): strain GC 1131
# In short: (§1)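 Broth dilution per NCCLS standard M7-A2 in Muller-Hinton II […], with an inoculum of 5×10^5 CFU/mL and antibiotic spanning 64-0.06 μg/mL. The MIC is the lowest concentration that inhibits growth of the organism.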
# Streptococcus sp. = details: broth dilution, 18 hours at 35° C.
# In short: as §1
# Enterococcus sp. = details: broth dilution, 18 hours at 35° C.
# In short: as §1
# Escherichia coli = system: Escherichia coli
# In short: as §1
smiles,measurement,setting,value
COc1cc(C2OCC3OC(OC4C(CO)OC(Oc5ccc(CC6NC(=O)C(C(C)c7ccccc7)NC(=O)CNC(=O)C(CO)NC(=O)C(C(O)C7CNC(=N)N7C7OC(CO)C(O)C(O)C7O)NC(=O)C(C(O)C7CNC(=N)N7)NC6=O)cc5)C(O)C4O)C(O)C(O)C3O2)ccc1[N+](=O)[O-] (centres unmarked) [Example 153],MIC Staphylococcus aureus (GC 1131),Staphylococcus sp.; inoculum 5×10^5 CFU/mL,2 µg/mL
same,MIC Staphylococcus aureus (ATCC 29213),Staphylococcus sp.; strain ATCC 29213,2 µg/mL
same,MIC Staphylococcus aureus (GC 1131),Staphylococcus sp.,2 µg/mL
same,MIC Staphylococcus aureus (GC 3051),Staphylococcus sp.; strain GC 3051,2 µg/mL
same,MIC Staphylococcus aureus (GC 3053),Staphylococcus sp.; strain GC 3053,4 µg/mL
same,MIC Staphylococcus aureus (GC 4541),Staphylococcus sp.; strain GC 4541,2 µg/mL
same,MIC Staphylococcus aureus (GC 4542),Staphylococcus sp.; strain GC 4542,2 µg/mL
same,MIC Staphylococcus aureus-SMITH (GC 4543),Staphylococcus sp.; strain GC 4543,1 µg/mL
same,MIC Staphylococcus aureus (GC 4544),Staphylococcus sp.; strain GC 4544,2 µg/mL
same,MIC Staphylococcus aureus (GC 4545),Staphylococcus sp.; strain GC 4545,2 µg/mL
same,MIC Staphylococcus haemolyticus (GC 4546),Staphylococcus sp.; strain GC 4546,1 µg/mL
same,MIC Coagulase Negative Staphylococcus (GC 4547),Staphylococcus sp.; strain GC 4547,1 µg/mL
same,MIC Coagulase Negative Staphylococcus (GC 4548),Staphylococcus sp.; strain GC 4548,0.5 µg/mL
same,MIC Coagulase Negative Staphylococcus (GC 4549),Staphylococcus sp.; strain GC 4549,0.5 µg/mL
same,MIC Coagulase Negative Staphylococcus (GC 4551),Staphylococcus sp.; strain GC 4551,2 µg/mL
same,MIC Coagulase Negative Staphylococcus (GC 6257),Staphylococcus sp.; strain GC 6257,0.5 µg/mL
same,MIC Staphylococcus aureus-SMITH (GC 4543),Staphylococcus sp.; strain SMITH GC 4543,1 µg/mL
same,MIC Streptococcus agalactiae (GC 4564),Streptococcus sp.; Streptococcus agalactiae (GC 4564),0.5 µg/mL
same,MIC Streptococcus pneumoniae (ATCC 6301),Streptococcus sp.; Streptococcus pneumoniae (ATCC 6301),<0.06 µg/mL
same,MIC Streptococcus pneumoniae (GC 1894),Streptococcus sp.; Streptococcus pneumoniae (GC 1894),<0.06 µg/mL
same,MIC Streptococcus pneumoniae (GC 4565),Streptococcus sp.; Streptococcus pneumoniae (GC 4565),<0.06 µg/mL
same,MIC Streptococcus pyogenes (GC 4563),Streptococcus sp.; Streptococcus pyogenes (GC 4563),0.25 µg/mL
same,MIC Streptococcus pneumoniae (ATCC 6301),Streptococcus sp.; strain ATCC 6301,<0.06 µg/mL
same,MIC Streptococcus pneumoniae (GC 1894),Streptococcus sp.; strain GC 1894,<0.06 µg/mL
same,MIC Streptococcus pyogenes (GC 4563),Streptococcus sp.; strain GC 4563,0.25 µg/mL
same,MIC Streptococcus agalactiae (GC 4564),Streptococcus sp.; strain GC 4564,0.5 µg/mL
same,MIC Streptococcus pneumoniae (GC 4565),Streptococcus sp.; strain GC 4565,<0.06 µg/mL
same,MIC Enterococcus avium (GC 4558),Enterococcus sp.; Enterococcus avium (GC 4558),8 µg/mL
same,MIC Enterococcus faecalis (ATCC 29212),Enterococcus sp.; Enterococcus faecalis (ATCC 29212),8 µg/mL
same,MIC Enterococcus faecalis (GC 2242),Enterococcus sp.; Enterococcus faecalis (GC 2242),4 µg/mL
same,MIC Enterococcus faecalis (GC 2691),Enterococcus sp.; Enterococcus faecalis (GC 2691),8 µg/mL
same,MIC Enterococcus faecalis (GC 3059),Enterococcus sp.; Enterococcus faecalis (GC 3059),8 µg/mL
same,MIC Enterococcus faecalis (GC 4552),Enterococcus sp.; Enterococcus faecalis (GC 4552),8 µg/mL
same,MIC Enterococcus faecalis (GC 4553),Enterococcus sp.; Enterococcus faecalis (GC 4553),8 µg/mL
same,MIC Enterococcus faecalis (GC 4554),Enterococcus sp.; Enterococcus faecalis (GC 4554),8 µg/mL
same,MIC Enterococcus faecalis (GC 6189),Enterococcus sp.; Enterococcus faecalis (GC 6189),4 µg/mL
same,MIC Enterococcus faecium (GC 2243),Enterococcus sp.; Enterococcus faecium (GC 2243),4 µg/mL
same,MIC Enterococcus faecium (GC 4556),Enterococcus sp.; Enterococcus faecium (GC 4556),4 µg/mL
same,MIC Enterococcus faecium (GC 4557),Enterococcus sp.; Enterococcus faecium (GC 4557),2 µg/mL
same,MIC Enterococcus faecalis (ATCC 29212),Enterococcus sp.; strain ATCC 29212,8 µg/mL
same,MIC Enterococcus faecalis (GC 2242),Enterococcus sp.; strain GC 2242,4 µg/mL
same,MIC Enterococcus faecium (GC 2243),Enterococcus sp.; strain GC 2243,4 µg/mL
same,MIC Enterococcus faecalis (GC 2691),Enterococcus sp.; strain GC 2691,8 µg/mL
same,MIC Enterococcus faecalis (GC 3059),Enterococcus sp.; strain GC 3059,8 µg/mL
same,MIC Enterococcus faecalis (GC 4552),Enterococcus sp.; strain GC 4552,8 µg/mL
same,MIC Enterococcus faecalis (GC 4553),Enterococcus sp.; strain GC 4553,8 µg/mL
same,MIC Enterococcus faecalis (GC 4554),Enterococcus sp.; strain GC 4554,8 µg/mL
same,MIC Enterococcus faecium (GC 4556),Enterococcus sp.; strain GC 4556,4 µg/mL
same,MIC Enterococcus faecium (GC 4557),Enterococcus sp.; strain GC 4557,2 µg/mL
same,MIC Enterococcus avium (GC 4558),Enterococcus sp.; strain GC 4558,8 µg/mL
same,MIC Enterococcus faecalis (GC 6189),Enterococcus sp.; strain GC 6189,4 µg/mL
same,MIC Escherichia coli (ATCC 25922),"Escherichia coli; strain ATCC 25922, 18 hours at 35° C.",64 µg/mL
same,MIC Escherichia coli (GC 4559),"Escherichia coli; strain GC 4559, 18 hours at 35° C.",64 µg/mL
